Patent publication US8859584B2, “TRPV1 antagonists” (AbbVie Inc., priority 2011, dated 2014)
Read-outs that look alike come from different tables or passages of the source.

How the values were obtained:
human TRPV1 [1] = target: T1, human TRPV1 (Homo sapiens, UniProt Q8NER1); experiment: Capsaicin Activation Assay (FLIPR intracellular Ca2+, recombinant HEK293 cells); format: cell-based
T1 construct: expressed in transfected cells

human TRPV1 [2] = target: T1, human TRPV1; experiment: Acid Activation Assay (pH 5.0, FLIPR intracellular Ca2+, recombinant HEK293 cells); format: cell-based; conditions: percentage of maximal pH 5.0-induced response remaining; HEK293 hTRPV1; max concentration 37.5 μM
Outline: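 HEK293 cells stably expressing recombinant hTRPV1 were loaded with calcium dye for 90-120 min at 25° C and pre-treated with compound for 3 min before a pH 5.0 (DPBS/MES) challenge. Peak FLIPR fluorescence over baseline is given as percentage of the maximal pH 5.0-induced response.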

[3] = recombinant HEK293 cells expressing hTRPV1, 50 nM capsaicin, read-out: human TRPV1 capsaicin IC50

T1 sequence (Q8NER1 whole entry): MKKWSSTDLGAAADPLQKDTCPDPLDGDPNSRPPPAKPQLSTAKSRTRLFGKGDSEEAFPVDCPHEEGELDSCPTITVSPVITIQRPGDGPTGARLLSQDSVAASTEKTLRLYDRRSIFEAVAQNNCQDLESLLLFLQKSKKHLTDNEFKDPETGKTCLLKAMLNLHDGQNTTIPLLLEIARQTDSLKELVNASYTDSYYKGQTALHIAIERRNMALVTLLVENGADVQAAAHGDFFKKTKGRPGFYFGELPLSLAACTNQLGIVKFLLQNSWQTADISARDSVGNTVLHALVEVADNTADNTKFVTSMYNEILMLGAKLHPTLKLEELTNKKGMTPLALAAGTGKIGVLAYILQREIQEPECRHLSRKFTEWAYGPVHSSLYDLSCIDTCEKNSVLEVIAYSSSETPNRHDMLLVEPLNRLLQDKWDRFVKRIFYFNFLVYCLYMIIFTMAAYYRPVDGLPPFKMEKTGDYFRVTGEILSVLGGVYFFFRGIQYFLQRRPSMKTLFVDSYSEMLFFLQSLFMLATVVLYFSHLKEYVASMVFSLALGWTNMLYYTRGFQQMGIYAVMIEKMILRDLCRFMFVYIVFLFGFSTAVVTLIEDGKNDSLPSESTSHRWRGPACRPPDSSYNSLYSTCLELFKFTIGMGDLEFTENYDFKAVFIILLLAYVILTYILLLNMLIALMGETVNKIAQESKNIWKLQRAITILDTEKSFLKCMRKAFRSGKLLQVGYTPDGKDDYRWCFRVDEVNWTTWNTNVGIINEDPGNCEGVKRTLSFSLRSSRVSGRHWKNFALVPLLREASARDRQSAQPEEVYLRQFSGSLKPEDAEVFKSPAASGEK

Compound	IC50 (human TRPV1 [1]; [3])	human TRPV1 H+ (max % remain) (human TRPV1 [2])	IC50 (human TRPV1 [1])
O=C(Nc1ccc(F)c2c1C[C@H](O)C2)N[C@@H]1CC(CF)(CF)Oc2c(F)cc(F)cc21 [Example 142, 1-[(4R)-6,8-difluoro-2,2-bis(fluoromethyl)-3,4-dihydro-2H-chromen-4-yl]-3-[(2S)-7-fluoro-2-hydroxy-2,3-dihydro-1H-inden-4-yl]urea]	4 µM	4%	–
O=C(Nc1cccc2c1C[C@H](O)C2)N[C@@H]1CCc2cc(Cl)ccc21 [Example 39, 1-[(1R)-5-chloro-2,3-dihydro-1H-inden-1-yl]-3-[(2R)-2-hydroxy-2,3-dihydro-1H-inden-4-yl]urea]	0.025 µM	46%	–
1-[(4R)-2,2-dimethyl-8-(trifluoromethoxy)-3,4-dihydro-2H-chromen-4-yl]-3-[(2R)-7-fluoro-2-hydroxy-2,3-dihydro-1H-inden-4-yl]urea [Example 172]	0.032 µM	47%	–
COCC1(COC)C[C@@H](NC(=O)Nc2cccc3c2C[C@H](O)C3)c2cc(F)ccc2O1 [Example 68, 1-[(4R)-6-fluoro-2,2-bis(methoxymethyl)-3,4-dihydro-2H-chromen-4-yl]-3-[(2R)-2-hydroxy-2,3-dihydro-1H-inden-4-yl]urea]	0.97 µM	79%	–
CC1(C(F)F)C[C@@H](NC(=O)Nc2cccc3c2C[C@H](O)C3)c2cc(Cl)ccc2O1 (stereo partly drawn) [Example 61, 1-[(4R)-6-chloro-2-(difluoromethyl)-2-methyl-3,4-dihydro-2H-chromen-4-yl]-3-[(2R)-2-hydroxy-2,3-dihydro-1H-inden-4-yl]urea]	0.02 µM	69%	–
O=C(Nc1cccc2c1CC(O)C2)NC1CC(c2ccc(F)cc2)Oc2ccccc21 (stereo not shown) [Example 119, 1-[2-(4-fluorophenyl)-3,4-dihydro-2H-chromen-4-yl]-3-(2-hydroxy-2,3-dihydro-1H-inden-4-yl)urea]	0.43 µM	72%	–
O=C(Nc1cccc2c1CC(O)C2)NC1c2ccccc2CC1Cc1ccc(Cl)c(Cl)c1 (stereo not shown) [Example 124, 1-[2-(3,4-dichlorobenzyl)-2,3-dihydro-1H-inden-1-yl]-3-(2-hydroxy-2,3-dihydro-1H-inden-4-yl)urea]	> 38 µM	63%	–
O=C(Nc1ccc(F)c2c1CC(O)C2)NC1CCc2cc(C(F)(F)F)ccc21 (stereo not shown) [Example 155, 1-(7-fluoro-2-hydroxy-2,3-dihydro-1H-inden-4-yl)-3-[5-(trifluoromethyl)-2,3-dihydro-1H-inden-1-yl]urea]	0.042 µM	19%	–
O=C(Nc1ccc(F)c2c1C[C@H](O)C2)N[C@@H]1CC(CF)(CF)Oc2cc(Cl)ccc21 [Example 134, 1-[(4R)-7-chloro-2,2-bis(fluoromethyl)-3,4-dihydro-2H-chromen-4-yl]-3-[(2S)-7-fluoro-2-hydroxy-2,3-dihydro-1H-inden-4-yl]urea]	–	3%	0.349 µM
O=C(Nc1cccc2c1C[C@H](O)C2)N[C@@H]1CCOc2c(F)cc(F)cc21 [Example 64, 1-[(4R)-6,8-difluoro-3,4-dihydro-2H-chromen-4-yl]-3-[(2R)-2-hydroxy-2,3-dihydro-1H-inden-4-yl]urea]	4.8 µM	90%	–
O=C(Nc1ccc(F)c2c1C[C@@H](O)C2)N[C@@H]1CC2(CCC2)Oc2ccc(F)cc21 [Example 163, 1-[(4R)-6-fluoro-3,4-dihydrospiro[chromene-2,1′-cyclobutan]-4-yl]-3-[(2R)-7-fluoro-2-hydroxy-2,3-dihydro-1H-inden-4-yl]urea]	0.69 µM	38%	–
CC1(C)C[C@@H](NC(=O)Nc2cccc3c2C[C@H](O)C3)c2cccc(F)c2O1 [Example 46, 1-[(4R)-8-fluoro-2,2-dimethyl-3,4-dihydro-2H-chromen-4-yl]-3-[(2R)-2-hydroxy-2,3-dihydro-1H-inden-4-yl]urea]	0.43 µM	87%	–
O=C(Nc1cccc2c1C[C@@H](O)C2)N[C@@H]1CC(CF)(CF)Oc2c(Cl)cccc21 [Example 75, 1-[(4R)-8-chloro-2,2-bis(fluoromethyl)-3,4-dihydro-2H-chromen-4-yl]-3-[(2S)-2-hydroxy-2,3-dihydro-1H-inden-4-yl]urea]	0.12 µM	40%	–
O=C(Nc1cccc2c1C[C@@H](O)C2)N[C@@H]1CC(CF)(CF)Oc2ccc(F)cc21 [Example 78, 1-[(4R)-6-fluoro-2,2-bis(fluoromethyl)-3,4-dihydro-2H-chromen-4-yl]-3-[(2S)-2-hydroxy-2,3-dihydro-1H-inden-4-yl]urea]	1.4 µM	12%	–
O=C(Nc1c(F)ccc2c1C[C@@H](O)C2)N[C@@H]1CC(CF)(CF)Oc2cc(Cl)ccc21 [Example 176, 1-[(4R)-7-chloro-2,2-bis(fluoromethyl)-3,4-dihydro-2H-chromen-4-yl]-3-[(2S)-5-fluoro-2-hydroxy-2,3-dihydro-1H-inden-4-yl]urea]	0.21 µM	4%	–
CCC1(CC)C[C@@H](NC(=O)Nc2cccc3c2C[C@H](O)C3)c2ccc(Cl)cc2O1 [Example 54, 1-[(4R)-7-chloro-2,2-diethyl-3,4-dihydro-2H-chromen-4-yl]-3-[(2R)-2-hydroxy-2,3-dihydro-1H-inden-4-yl]urea]	0.076 µM	59%	–
O=C(Nc1cccc2c1CC(O)C2)NC1c2ccccc2OCC1c1ccc(Cl)cc1 (stereo not shown) [Example 115, 1-[3-(4-chlorophenyl)-3,4-dihydro-2H-chromen-4-yl]-3-(2-hydroxy-2,3-dihydro-1H-inden-4-yl)urea]	1.1 µM	94%	–
CC1(C)C[C@@H](NC(=O)Nc2cccc3c2C[C@@H](O)C3)c2ccc(Cl)cc2O1 [Example 85, 1-[(4R)-7-chloro-2,2-dimethyl-3,4-dihydro-2H-chromen-4-yl]-3-[(2S)-2-hydroxy-2,3-dihydro-1H-inden-4-yl]urea]	0.024 µM	12%	–
C[C@]1(CF)C[C@@H](NC(=O)Nc2c(F)ccc3c2C[C@@H](O)C3)c2ccc(Cl)cc2O1 [Example 100, 1-[(2R,4R)-7-chloro-2-(fluoromethyl)-2-methyl-3,4-dihydro-2H-chromen-4-yl]-3-[(2S)-5-fluoro-2-hydroxy-2,3-dihydro-1H-inden-4-yl]urea]	0.033 µM	30%	–
CCC1(CC)C[C@@H](NC(=O)Nc2cccc3c2C[C@H](O)C3)c2cccc(F)c2O1 [Example 48, 1-[(4R)-2,2-diethyl-8-fluoro-3,4-dihydro-2H-chromen-4-yl]-3-[(2R)-2-hydroxy-2,3-dihydro-1H-inden-4-yl]urea]	0.024 µM	89%	–
1-(5-chloro-2,3-dihydro-1H-inden-1-yl)-3-(7-fluoro-2-hydroxy-2,3-dihydro-1H-inden-4-yl)urea [Example 174]	0.42 µM	29%	–
O=C(Nc1cccc2c1C[C@@H](O)C2)N[C@@H]1CCOc2c(OC(F)(F)F)cccc21 [Example 73, 1-[(2S)-2-hydroxy-2,3-dihydro-1H-inden-4-yl]-3-[(4R)-8-(trifluoromethoxy)-3,4-dihydro-2H-chromen-4-yl]urea]	0.025 µM	18%	–
CN1CC[C@@H](NC(=O)Nc2cccc3c2C[C@H](O)C3)c2ccc(C(F)(F)F)cc21 [Example 23, 1-[(2R)-2-hydroxy-2,3-dihydro-1H-inden-4-yl]-3-[(4R)-1-methyl-7-(trifluoromethyl)-1,2,3,4-tetrahydroquinolin-4-yl]urea]	0.051 µM	74%	–
O=C(Nc1cccc2c1C[C@H](O)C2)N[C@@H]1CCc2cc(OC(F)(F)F)ccc21 [Example 106, 1-[(2R)-2-hydroxy-2,3-dihydro-1H-inden-4-yl]-3-[(1R)-5-(trifluoromethoxy)-2,3-dihydro-1H-inden-1-yl]urea]	0.056 µM	26%	–
O=C(Nc1cccc2c1C[C@@H](O)C2)N[C@H]1CC(CF)(CF)Oc2cc(Cl)ccc21 [Example 98, 1-[(4S)-7-chloro-2,2-bis(fluoromethyl)-3,4-dihydro-2H-chromen-4-yl]-3-[(2S)-2-hydroxy-2,3-dihydro-1H-inden-4-yl]urea]	0.5 µM	13%	–
O=C(Nc1cccc2c1C[C@@H](O)C2)N[C@@H]1CC2(CCC2)Oc2ccc(F)cc21 [Example 80, 1-[(4R)-6-fluoro-3,4-dihydrospiro[chromene-2,1′-cyclobutan]-4-yl]-3-[(2S)-2-hydroxy-2,3-dihydro-1H-inden-4-yl]urea]	0.11 µM	4%	–
O=C(Nc1cccc2c1C[C@H](O)C2)N[C@@H]1CCOc2c(OC(F)(F)F)cccc21 [Example 6, 1-[(2R)-2-hydroxy-2,3-dihydro-1H-inden-4-yl]-3-[(4R)-8-(trifluoromethoxy)-3,4-dihydro-2H-chromen-4-yl]urea]	0.016 µM	67%	–
O=C(Nc1cccc2c1C[C@H](O)C2)N[C@@H]1CC(CF)(CF)Oc2ccc(F)cc21 [Example 57, 1-[(4R)-6-fluoro-2,2-bis(fluoromethyl)-3,4-dihydro-2H-chromen-4-yl]-3-[(2R)-2-hydroxy-2,3-dihydro-1H-inden-4-yl]urea]	0.57 µM	63%	–
CCC1(CC)C[C@@H](NC(=O)Nc2cccc3c2C[C@H](O)C3)c2ccc(Cl)c(Cl)c2O1 [Example 55, 1-[(4R)-7,8-dichloro-2,2-diethyl-3,4-dihydro-2H-chromen-4-yl]-3-[(2R)-2-hydroxy-2,3-dihydro-1H-inden-4-yl]urea]	0.24 µM	72%	–
